In ChEMBL document CHEMBL3784995, “Inhibitors of HIV-1 maturation: Development of structure-activity relationship for C-28 amides based on C-3 benzoic acid-modified triterpenoids” (Bioorg Med Chem Lett, 2016):

How the values were obtained:
[1] = Bioavailability in cannula implanted rat at 5 mg/kg administered through oral gavage after 24 hrs by LC-MS/MS analysis; format: ADME, organism-based; details: in vivo
[2] = system: Human immunodeficiency virus 1; assay: Antiviral activity against wild type HIV1 NL4-3 habouring Gag protein delta V370 infected in human MT2 cells after 4 to 5 days by dual-luciferase reporter gene assay; format: functional, organism-based; details: Human immunodeficiency virus 1, NL4-3, MT2
[3] = system: Human immunodeficiency virus 1; assay: Antiviral activity against wild type HIV1 NL4-3 infected in human MT2 cells after 4 to 5 days by dual-luciferase reporter gene assay in presence of human serum albumin; format: functional, organism-based; details: Human immunodeficiency virus 1, NL4-3, MT2
[4] = system: Human immunodeficiency virus 1; assay: Antiviral activity against wild type HIV1 NL4-3 infected in human MT2 cells after 4 to 5 days by dual-luciferase reporter gene assay; format: functional, organism-based; details: Human immunodeficiency virus 1, NL4-3, MT2
[5] = system: Human immunodeficiency virus 1; assay: Antiviral activity against wild type HIV1 NL4-3 habouring Gag protein V370A mutant infected in human MT2 cells after 4 to 5 days by dual-luciferase reporter gene assay; format: functional, organism-based; details: Human immunodeficiency virus 1, NL4-3, MT2
[6] = Cytotoxicity against human MT2 cells; format: cell-based
[7] = AUC (0 to 6 hrs) in cannula implanted rat at 5 mg/kg administered through oral gavage after 24 hrs by LC-MS/MS analysis; format: ADME, organism-based; design: dose 5 mg/kg, time < 6 hr, route oral; details: in vivo
[8] = Metabolic stability in human liver microsomes at 0.5 uM by LC-MS/MS analysis in presence of NADPH; format: ADME
[9] = Metabolic stability in rat liver microsomes at 0.5 uM by LC-MS/MS analysis in presence of NADPH; format: ADME
[10] = Plasma clearance in cannula implanted rat at 1 mg/kg, iv by LC-MS/MS analysis; format: ADME, organism-based
[11] = Cmax in cannula implanted rat at 5 mg/kg administered through oral gavage after 24 hrs by LC-MS/MS analysis; format: ADME, organism-based; design: dose 5 mg/kg, route oral; details: in vivo
[12] = system: Human immunodeficiency virus 1; assay: Antiviral activity against wild type BVM-resistant HIV1 NL4-3 habouring Gag protein T371A mutant infected in human MT2 cells after 4 to 5 days by dual-luciferase reporter gene assay; format: functional, organism-based; details: Human immunodeficiency virus 1, NL4-3, MT2

| Compound | bioavailability [1] [%] | EC50 [2] [nM] | EC50 [3] [nM] | EC50 [4] [nM] | EC50 [5] [nM] | CC50 [6] [nM] | AUC(0-t) at 6 h [7] [µM·h] | half-life at 0.5 µM [8] [h] | half-life at 0.5 µM [9] [h] | clearance [10] [mL/min/kg] | Cmax [11] [nM] | EC50 [12] [nM] |
| --- | --- | --- | --- | --- | --- | --- | --- | --- | --- | --- | --- | --- |
| C=C(C)[C@@H]1CC[C@]2(C(=O)O)CC[C@]3(C)[C@H](CC[C@@H]4[C@@]5(C)CC=C(c6ccc(C(=O)O)cc6)C(C)(C)[C@@H]5CC[C@]43C)[C@@H]12 | 4 | > 6000 | – | – | – | – | – | – | – | – | – | – |
| C=C(C)[C@@H]1CC[C@]2(C(=O)NC)CC[C@]3(C)[C@H](CC[C@@H]4[C@@]5(C)CC=C(c6ccc(C(=O)O)cc6)C(C)(C)[C@@H]5CC[C@]43C)[C@@H]12 | – | – | 28 | 10 | 252 | 7000 | – | – | – | – | – | – |
| C=C(C)[C@@H]1CC[C@]2(C(=O)NCCN)CC[C@]3(C)[C@H](CC[C@@H]4[C@@]5(C)CC=C(c6ccc(C(=O)O)cc6)C(C)(C)[C@@H]5CC[C@]43C)[C@@H]12 | – | 702 | – | 3 | 7 | 4000 | – | – | – | – | – | – |
| C=C(C)[C@@H]1CC[C@]2(C(=O)NCCN(CC)CC(=O)O)CC[C@]3(C)[C@H](CC[C@@H]4[C@@]5(C)CC=C(c6ccc(C(=O)O)cc6)C(C)(C)[C@@H]5CC[C@]43C)[C@@H]12 | – | 64 | – | 3 | 9 | 17000 | 0.22 | > 2 | > 2 | 26.7 | – | – |
| C=C(C)[C@@H]1CC[C@]2(C(=O)NCC(=O)O)CC[C@]3(C)[C@H](CC[C@@H]4[C@@]5(C)CC=C(c6ccc(C(=O)O)cc6)C(C)(C)[C@@H]5CC[C@]43C)[C@@H]12 | – | > 2000 | – | 106 | > 2000 | > 50000 | – | – | – | – | – | – |
| C=C(C)[C@@H]1CC[C@]2(C(=O)NS(=O)(=O)C3CC3)CC[C@]3(C)[C@H](CC[C@@H]4[C@@]5(C)CC=C(c6ccc(C(=O)O)cc6)C(C)(C)[C@@H]5CC[C@]43C)[C@@H]12 | – | 1190 | 166 | 59 | 67 | 18000 | – | – | – | – | – | – |
| C=C(C)[C@@H]1CC[C@]2(C(=O)NCCC(C)C)CC[C@]3(C)[C@H](CC[C@@H]4[C@@]5(C)CC=C(c6ccc(C(=O)O)cc6)C(C)(C)[C@@H]5CC[C@]43C)[C@@H]12 | – | 1610 | – | 47 | 101 | 11000 | 1.58 | – | – | 0.6 | 731 | – |
| C=C(C)[C@@H]1CC[C@]2(C(=O)N[C@@H](CN(C)C)C(=O)O)CC[C@]3(C)[C@H](CC[C@@H]4[C@@]5(C)CC=C(c6ccc(C(=O)O)cc6)C(C)(C)[C@@H]5CC[C@]43C)[C@@H]12 | – | > 160 | – | 46 | 772 | 25000 | – | – | – | – | – | – |
| C=C(C)[C@@H]1CC[C@]2(C(=O)NCCNCC(=O)O)CC[C@]3(C)[C@H](CC[C@@H]4[C@@]5(C)CC=C(c6ccc(C(=O)O)cc6)C(C)(C)[C@@H]5CC[C@]43C)[C@@H]12 | – | 61 | – | 42 | 15 | > 2000 | – | – | – | – | – | – |
| C=C(C)[C@@H]1CC[C@]2(C(=O)NCc3nccs3)CC[C@]3(C)[C@H](CC[C@@H]4[C@@]5(C)CC=C(c6ccc(C(=O)O)cc6)C(C)(C)[C@@H]5CC[C@]43C)[C@@H]12 | – | 690 | – | 15 | 28 | 6000 | – | – | – | – | – | – |
| C=C(C)[C@@H]1CC[C@]2(C(=O)NCCN(CC)CCC(=O)O)CC[C@]3(C)[C@H](CC[C@@H]4[C@@]5(C)CC=C(c6ccc(C(=O)O)cc6)C(C)(C)[C@@H]5CC[C@]43C)[C@@H]12 | – | 119 | – | 2 | 6 | > 17000 | – | – | – | – | – | – |
| C=C(C)[C@@H]1CC[C@]2(C(=O)NCCN(CC)CC)CC[C@]3(C)[C@H](CC[C@@H]4[C@@]5(C)CC=C(c6ccc(C(=O)O)cc6)C(C)(C)[C@@H]5CC[C@]43C)[C@@H]12 | – | 39 | – | 2 | 7 | 33000 | 0.809 | – | – | 3.3 | 229 | – |
| C=C(C)[C@@H]1CC[C@]2(C(=O)NCCN(C)C(C)=O)CC[C@]3(C)[C@H](CC[C@@H]4[C@@]5(C)CC=C(c6ccc(C(=O)O)cc6)C(C)(C)[C@@H]5CC[C@]43C)[C@@H]12 | – | 224 | – | 3 | 2 | 9000 | – | – | – | – | – | – |
| C=C(C)[C@@H]1CC[C@]2(C(=O)NCc3ccccn3)CC[C@]3(C)[C@H](CC[C@@H]4[C@@]5(C)CC=C(c6ccc(C(=O)O)cc6)C(C)(C)[C@@H]5CC[C@]43C)[C@@H]12 | – | – | 9 | 5 | 31 | 1000 | – | – | – | – | – | – |
| C=C(C)[C@@H]1CC[C@]2(C(=O)NS(C)(=O)=O)CC[C@]3(C)[C@H](CC[C@@H]4[C@@]5(C)CC=C(c6ccc(C(=O)O)cc6)C(C)(C)[C@@H]5CC[C@]43C)[C@@H]12 | – | – | 1520 | 47 | 282 | 16000 | – | – | – | – | – | – |
| C=C(C)[C@@H]1CC[C@]2(C(=O)NCCNC(C)=O)CC[C@]3(C)[C@H](CC[C@@H]4[C@@]5(C)CC=C(c6ccc(C(=O)O)cc6)C(C)(C)[C@@H]5CC[C@]43C)[C@@H]12 | – | 361 | 22 | 5 | 24 | 12000 | – | – | – | – | – | – |
| C=C(C)[C@@H]1CC[C@]2(C(=O)N3CCCCC3)CC[C@]3(C)[C@H](CC[C@@H]4[C@@]5(C)CC=C(c6ccc(C(=O)O)cc6)C(C)(C)[C@@H]5CC[C@]43C)[C@@H]12 | – | – | 1580 | 369 | – | 200 | – | – | – | – | – | – |
| C=C(C)[C@@H]1CC[C@]2(C(=O)NCCN3CCCCC3)CC[C@]3(C)[C@H](CC[C@@H]4[C@@]5(C)CC=C(c6ccc(C(=O)O)cc6)C(C)(C)[C@@H]5CC[C@]43C)[C@@H]12 | – | 359 | – | 7 | 10 | 10000 | – | – | – | – | – | – |
| C=C(C)[C@@H]1CC[C@]2(C(=O)NCCN(C)CC(=O)O)CC[C@]3(C)[C@H](CC[C@@H]4[C@@]5(C)CC=C(c6ccc(C(=O)O)cc6)C(C)(C)[C@@H]5CC[C@]43C)[C@@H]12 | – | 160 | – | 10 | 51 | 200 | – | – | – | – | – | – |
| C=C(C)[C@@H]1CC[C@]2(C(=O)NCCO)CC[C@]3(C)[C@H](CC[C@@H]4[C@@]5(C)CC=C(c6ccc(C(=O)O)cc6)C(C)(C)[C@@H]5CC[C@]43C)[C@@H]12 | – | > 2000 | 39 | 7 | 41 | 7000 | – | – | – | – | – | – |
| C=C(C)[C@@H]1CC[C@]2(C(=O)NCC(N)=O)CC[C@]3(C)[C@H](CC[C@@H]4[C@@]5(C)CC=C(c6ccc(C(=O)O)cc6)C(C)(C)[C@@H]5CC[C@]43C)[C@@H]12 | – | 2000 | – | 6 | 32 | 9000 | – | – | – | – | – | – |
| C=C(C)[C@@H]1CC[C@]2(C(=O)NCC(C)(C)N)CC[C@]3(C)[C@H](CC[C@@H]4[C@@]5(C)CC=C(c6ccc(C(=O)O)cc6)C(C)(C)[C@@H]5CC[C@]43C)[C@@H]12 | – | 800 | – | 7 | 21 | 20000 | – | – | – | – | – | – |
| C=C(C)[C@@H]1CC[C@]2(C(=O)NCCOC)CC[C@]3(C)[C@H](CC[C@@H]4[C@@]5(C)CC=C(c6ccc(C(=O)O)cc6)C(C)(C)[C@@H]5CC[C@]43C)[C@@H]12 | – | – | – | 17 | 152 | 14000 | – | – | – | – | – | – |
| C=C(C)[C@@H]1CC[C@]2(C(=O)NCCN3CCOCC3)CC[C@]3(C)[C@H](CC[C@@H]4[C@@]5(C)CC=C(c6ccc(C(=O)O)cc6)C(C)(C)[C@@H]5CC[C@]43C)[C@@H]12 | – | 77 | 28 | 7 | 12 | 5000 | – | – | – | – | – | – |
| C=C(C)[C@@H]1CC[C@]2(C(=O)NCCN(CC(=O)O)CC(=O)O)CC[C@]3(C)[C@H](CC[C@@H]4[C@@]5(C)CC=C(c6ccc(C(=O)O)cc6)C(C)(C)[C@@H]5CC[C@]43C)[C@@H]12 | – | > 2000 | – | > 2000 | > 2000 | > 20000 | – | – | – | – | – | – |
| C=C(C)[C@@H]1CC[C@]2(C(=O)NCCCN(C)C)CC[C@]3(C)[C@H](CC[C@@H]4[C@@]5(C)CC=C(c6ccc(C(=O)O)cc6)C(C)(C)[C@@H]5CC[C@]43C)[C@@H]12 | – | 50 | 3 | 2 | 9 | 500 | 0.116 | > 2 | > 2 | 8.3 | 36 | – |
| C=C(C)[C@@H]1CC[C@]2(C(=O)NCCN(C(C)C)C(C)C)CC[C@]3(C)[C@H](CC[C@@H]4[C@@]5(C)CC=C(c6ccc(C(=O)O)cc6)C(C)(C)[C@@H]5CC[C@]43C)[C@@H]12 | – | 69 | – | 4 | 13 | 3000 | 1.31 | > 2 | > 2 | 4.3 | 302 | – |
| C=C(C)[C@@H]1CC[C@]2(C(=O)O)CC[C@]3(C)[C@H](CC[C@@H]4[C@@]5(C)CC[C@H](OC(=O)CC(C)(C)C(=O)O)C(C)(C)[C@@H]5CC[C@]43C)[C@@H]12 [BEVIRIMAT] | – | > 10000 | – | – | – | – | – | – | – | – | – | 40 |
